Test system: locally advanced pancreatic cancer
Experiment: Post-market registry study: intra-arterial (TAMP) delivery of gemcitabine with the RenovoCath RC120 catheter
Assay type: in vivo, human
Procedure: A post-market registry study was conducted to assess patient survival and clinical outcomes using the RenovoCath™ RC120 catheter (RenovoRx, Los Altos, Calif.) in a clinical, prospective observational setting when used to deliver a chemotherapeutic to the pancreas as described in Table 1. [table] […] An interventional radiologist used the RenovoCath™ RC 120 catheter to optimize drug delivery to the tumor(s). At the conclusion of the case, the femoral artery arteriotomy was sealed and patient monitored as per standard institutional protocol. All patients enrolled during the two-year registry enrollment period were followed periodically for survival outcome. Patients were contacted by telephone at the following intervals after the final intra-arterial treatment: 6 months±30 days, 1 year±30 days and 2 years±30 days. Patients were assessed for serious adverse events with specific attention to events related to local delivery of chemotherapeutic agents to the pancreas and device performance. FIG. 10 is a graph 1000 illustrating the effect of the TAMP technique on patient survival after radiation therapy compared with the effect of the TAMP technique with no radiation therapy. Fifteen patients with locally advanced pancreatic cancer were treated with gemcitabine in a dose-escalated protocol administered in four cycles using the TAMP technique. […]

Nc1ccn([C@@H]2O[C@H](CO)[C@@H](O)C2(F)F)c(=O)n1 [gemcitabine]
survival rates (survival percentage) of patients (gemcitabine by TAMP (eight treatments, or more than two treatments) compared with systemic infusion of gemcitabine (Chauffert et al. 2008), FIG. 9): greater than the survival rates of the patients given systemic infusion of the same drug
patient survival (gemcitabine by TAMP, dose-escalated, four cycles, patients with prior radiation vs no prior treatment or only prior systemic chemotherapy, FIG. 10): significant improvement in survival

Reference: patent publication US12290564B2, “Methods and apparatuses for treating tumors” (RenovoRx, Inc., priority 2017, dated 2025)
